Laboratory results published in ChEMBL document CHEMBL4340575, “Design, synthesis and biological evaluation of novel aryl-acrylic derivatives as novel indoleamine-2,3-dioxygenase 1 (IDO1) inhibitors” (Bioorg Med Chem, 2019).

What was measured:
[1] = target: T1, Indoleamine 2,3-dioxygenase 1 (Homo sapiens, UniProt P14902); assay: Inhibition of purified recombinant human IDO1 using L-tryptophan substrate incubated fro 30 mins
[2] = target: T1, Indoleamine 2,3-dioxygenase 1; assay: Inhibition of IDO1 in interferon-gamma-induced human HeLa cells using L-tryptophan substrate incubated for 24 hrs; format: cell-based
HeLa = assay: Toxicity in human HeLa cells assessed as reduction in cell viability; format: cell-based

T1 sequence (P14902 whole entry): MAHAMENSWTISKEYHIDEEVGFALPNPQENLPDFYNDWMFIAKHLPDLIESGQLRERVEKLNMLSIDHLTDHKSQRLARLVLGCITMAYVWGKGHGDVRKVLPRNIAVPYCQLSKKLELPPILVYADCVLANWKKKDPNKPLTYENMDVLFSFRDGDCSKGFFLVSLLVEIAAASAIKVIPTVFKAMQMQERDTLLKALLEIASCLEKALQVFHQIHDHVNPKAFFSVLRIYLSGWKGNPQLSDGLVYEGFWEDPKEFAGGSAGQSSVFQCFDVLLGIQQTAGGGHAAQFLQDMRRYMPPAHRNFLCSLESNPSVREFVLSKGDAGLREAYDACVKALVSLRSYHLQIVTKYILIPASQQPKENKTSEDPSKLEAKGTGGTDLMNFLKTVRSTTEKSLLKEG

Compound	IC50 [1]	IC50 [2]	Activity (HeLa)
C/C(=C\C(=O)O)c1ccc(N(CC(C)C)CC(C)C)c(NC(=O)N/N=C/c2ccc(Cl)cc2)c1	10.2 µM	1.02 µM	Non-Toxic
CCCCN(CCCC)c1ccc(/C(C)=C/C(=O)O)cc1NC(=O)N/N=C/c1ccccc1C(F)(F)F	12.3 µM	2.83 µM	Non-Toxic
C/C(=C\C(=O)O)c1ccc(N(CC(C)C)CC(C)C)c(NC(=O)N/N=C/c2ccccc2F)c1	10.1 µM	1.95 µM	Non-Toxic

Second part, led by results:

IC50 [1]	IC50 [2]	Compound	Activity (HeLa)
14.4 µM	3.87 µM	CCCCN(CCCC)c1ccc(/C(C)=C/C(=O)O)cc1NC(=O)N/N=C/c1ccc(Cl)cc1	Non-Toxic
58.3 µM	20 µM	C/C(=C\C(=O)O)c1ccc(N2CCOCC2)c(-n2cc(CNc3ccc(F)cc3)nn2)c1	–
